Key:
[1] = Parallel artificial membrane permeability assay (PAMPA); format: in vitro ADME; details: PAMPAPEFF permeation coefficient
Description: (§1) Compounds 1–3 were characterized in a hybrid reporter gene assay for their agoniztic effect on human nuclear receptors PPARα/γ/δ, RXRα, FXRα, RARα in HEK293T cells. Compound 1 was tested in an isothermal titration calorimetry (ITC) assay to measure direct binding affinity to the ligand-binding domain of PPARγ. ADME properties were measured in standardized assays at Roche.
SI11Absorption Distribution Metabolism and Excretion and Toxicity Data
To assess the drug-like characteristics of the newly designed PPAR modulators, a series of tests were conducted covering various aspects of absorption, distribution, metabolism, and excretion (ADME) properties. Specifically, these assessments included the parallel artificial membrane permeability assay (PAMPA) with permeation co- […]
efficients ([…]), LogD measurements, microsomal clearance, hepatocyte clearance, P-glycoprotein (Pgp) efflux ratio and binding and the unbound free fraction. […]
Table S14: Absorption distribution metabolism and excretion (ADME) properties of compounds 1 and 2. The […]
values for […], LogD, protein binding, P-glycoprotein (Pgp) efflux ratio and permeability, and hepato-cyte clearance are presented as the mean and standard deviation, with a sample size of N = 3, i.e., 3 technical replicates each. The values for microsomal clearance and CYP-inhibition represent single point measurements. […]

[2] = molecular target: T1, human PPARα (Homo sapiens, UniProt Q07869); assay: Gal4-hybrid reporter gene assay, PPARα activation; format: cell-based; details: hybrid reporter gene assay, result in words
T1 construct: expressed in transfected cells; host or cells: HEK293T
T1 sequence (Q07869 239-466 limits assumed): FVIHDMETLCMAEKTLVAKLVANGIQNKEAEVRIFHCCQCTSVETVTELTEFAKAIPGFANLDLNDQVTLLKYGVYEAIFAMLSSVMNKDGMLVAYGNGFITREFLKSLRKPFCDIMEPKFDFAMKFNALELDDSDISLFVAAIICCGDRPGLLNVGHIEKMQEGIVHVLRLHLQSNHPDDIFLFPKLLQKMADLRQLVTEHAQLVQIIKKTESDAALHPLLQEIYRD
Description: as §1
PPAR activation was determined in uniform Gal4-hybrid reporter gene assays for the PPARα, PPARγ and PPARδ isoforms in HEK293T cells (German Collection of Microorganisms and Cell Culture GmbH, DSMZ) which were transiently transfected with pFR-Luc (Stratagene, La Jolla, CA, USA; reporter) and pRL-SV40 (Promega, Madison, WI, USA; internal control) and one pFA-CMV-hPPAR-LBD[97] clone, coding for the hinge region and ligand binding domain of the canonical isoform of human PPARα, PPARγ, PPARδ or respectively. Cells were cultured in Dulbecco’s modified Eagle’s medium (DMEM), high glucose supplemented with 10% fetal calf serum (FCS), sodium pyruvate (1 mM), penicillin (100 U ⋅ ml^-1), and streptomycin (100 μg ⋅ ml^-1) at 37 °C and 5% CO2 and seeded in 96-well plates (3 × 10^4 cells per well). After 24 h, medium was changed to Opti-MEM without supplements and cells were transiently transfected using Lipofectamine LTX reagent (Invitrogen) according to the manufacturer’s protocol. Five hours after transfection, cells were incubated with the test compounds in Opti-MEM supplemented with penicillin (100 U ⋅ ml^-1), streptomycin (100 μg ⋅ ml^-1) and 0.1% DMSO for 16 h before luciferase activity was measured using the Dual-Glo Luciferase Assay System (Promega) according to the manufacturer’s protocol on a Tecan Spark luminometer (Tecan Deutschland GmbH, Germany). Firefly luminescence was divided by Renilla luminescence and multiplied by 1000 resulting in relative light units (RLU) to normalize for transfection efficiency and cell growth. Fold activation was obtained by dividing the mean RLU of a test compound by the mean RLU of the untreated control. All samples were tested in at least three biologically independent experiments in duplicates. For dose-response curve fitting and calculation of EC50 values, the equation “[Agonist] versus response (variable slope—four parameters)” was used in GraphPad Prism (version 7.00, GraphPad Software, La Jolla, CA, USA) with fold activation data. The reference agonizts GW7647 (PPARα)[98],[99], pioglitazone (PPARγ)[100],[101] and L165,041 (PPARδ)[102],[103] were used to validate the assays and to monitor assay performance. Nuclear receptor selectivity profiling was performed with corresponding pFA-CMV-hNR-LBD clones and suitable reference agonizts on RARα (pFA-CMV-hRARα-LBD[104], 1 μM tretinoin), LXRα (pFA-CMV-hLXRα-LBD[104], 1 μM TO901317) and RXRα (pFA-CMV-h RXRα-LBD[105], 1 μM Bexarotene).

[3] = molecular target: T2, PPARγ LBD protein (Homo sapiens, UniProt P37231); assay: Isothermal titration calorimetry (ITC); format: binding
T2 construct: PPARγ LBD protein (30 μM, prepared as described previously[106]); made in house
Description: as §1
ITC experiments were conducted on an Affinity ITC instrument (TA Instruments, New Castle, DE) at 25 °C with a stirring rate of 75 rpm. PPARγ LBD protein (30 μM, prepared as described previously[106]) in buffer (20 mM Tris pH 7.5, 150 mM NaCl, 5% glycerol) containing 5% DMSO was titrated with the test compound (1) (100 μM in the same buffer containing 5% DMSO) in 21 injections (1 × 1μl and 20 × 5μl) with an injection interval of 120 s. The test compound was titrated into buffer, and the buffer was titrated to the PPARγ LBD proteins under otherwise identical conditions. The ITC results were analyzed using NanoAnalyze software (TA Instruments, New Castle, DE) with an independent binding model.

T2 sequence (P37231 238-503 limits assumed): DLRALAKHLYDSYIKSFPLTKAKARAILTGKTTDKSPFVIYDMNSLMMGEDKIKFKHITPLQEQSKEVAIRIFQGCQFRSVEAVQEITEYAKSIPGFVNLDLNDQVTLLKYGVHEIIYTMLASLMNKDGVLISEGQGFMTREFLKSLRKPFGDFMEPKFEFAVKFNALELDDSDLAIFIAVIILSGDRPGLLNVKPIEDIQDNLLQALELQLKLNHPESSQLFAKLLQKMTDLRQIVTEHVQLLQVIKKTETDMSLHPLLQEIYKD

COc1ccc(Oc2ccc3ncn(CCOc4ccc(CCC(=O)O)cc4)c3c2)cc1 [Compound 2]
Papp [1]: 3.9 ×10⁻⁶ cm/s | activity on PPARα [2]: no discernible impact

Cc1nnc(-c2ccc(OCCCOc3ccc(CCC(=O)O)c(F)c3)c(F)c2)s1 [Compound 1]
molar ratio (ligand per protein) [3]: one ligand per protein molecule | Kd ([3]; 25 °C, ligand binding domain of PPARγ, read-out: dissociation constant KD): 800 ± 100 nM

Reference: publication PMC11035696, “Prospective de novo drug design with deep interactome learning” (Nature Communications, 2024)
